Where only a bound is given, the exact number is not on record here.

Broadly, the inhibition is the drop in the measured response relative to a control, in per cent. Read a low inhibition as a weak effect. For orientation: IC50 means the concentration that gives 50% inhibition. Higher therefore signals weaker potency.

One assay has as its target T1, LIM domain kinase 1 (Homo sapiens, UniProt P53667). In words: Inhibition of LIMK1 (unknown origin) using cofilin-2 as substrate at 30 uM after 60 mins by Kinase-Glo assay relative to control.
Target sequence in this assay (P53667 whole entry, looked up, the tested form may be a part): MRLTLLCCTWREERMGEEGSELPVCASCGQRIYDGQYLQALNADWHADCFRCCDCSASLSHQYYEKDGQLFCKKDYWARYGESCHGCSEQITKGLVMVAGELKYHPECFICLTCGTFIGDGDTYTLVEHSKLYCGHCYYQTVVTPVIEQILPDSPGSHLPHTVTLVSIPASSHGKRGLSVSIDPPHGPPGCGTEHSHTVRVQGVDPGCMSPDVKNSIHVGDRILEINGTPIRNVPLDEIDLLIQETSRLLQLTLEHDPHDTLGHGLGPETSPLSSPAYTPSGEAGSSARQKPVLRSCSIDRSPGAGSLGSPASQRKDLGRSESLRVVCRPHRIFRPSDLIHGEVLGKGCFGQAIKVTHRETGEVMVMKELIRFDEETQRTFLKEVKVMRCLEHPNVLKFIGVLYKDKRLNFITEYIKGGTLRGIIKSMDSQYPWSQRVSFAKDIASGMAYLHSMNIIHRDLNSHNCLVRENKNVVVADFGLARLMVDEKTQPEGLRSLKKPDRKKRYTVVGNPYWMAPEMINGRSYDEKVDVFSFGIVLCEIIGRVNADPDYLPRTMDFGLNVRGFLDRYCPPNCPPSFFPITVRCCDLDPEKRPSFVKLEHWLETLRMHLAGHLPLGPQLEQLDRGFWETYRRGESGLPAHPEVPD
`NC(=O)c1sc2ncccc2c1N` returned an inhibition of 40%. In turn, `Nc1c(C(=O)N2CCOCC2)sc2ncccc12` registered an inhibition of 0%. Consider `NC(=O)c1sc2nccc(Nc3ccccc3)c2c1N`, for which the inhibition is 98%. `NC(=O)c1sc2nc3c(c(-c4cccs4)c2c1N)CCC3` yielded an inhibition of 50%.

For the compound `CN(C)c1ccnc2sc(C(N)=O)c(N)c12`, the inhibition is 67%. Take `Cc1ccnc2sc(C(N)=O)c(N)c12`: the inhibition was found to be 79%. On the same count and under the same terms, next, `Nc1c(C(=O)Nc2ccccc2)sc2ncccc12`: 15%; `Nc1c(C(=O)NC2CCCCC2)sc2ncccc12`: 2%. Same read-out and setting: next, `NC(=O)c1sc2ncc3c(c2c1N)CCCC3`: 16%; `Nc1c(C(=O)Nc2ccccc2)sc2nccc(Nc3ccccc3)c12`: 0%.

In the next assay the target is T1, LIM domain kinase 1. The experiment in a line: Inhibition of LIMK1 (unknown origin) using cofilin-2 as substrate after 60 mins by Kinase-Glo assay. In general terms: In Kinase-Glo more light means more ATP remaining.
Target sequence in this assay (P53667 whole entry, the tested form may be a part): as the sequence (P53667 whole entry, looked up, the tested form may be a part) above
For the compound `NC(=O)c1sc2nc(-c3ccccc3)ccc2c1N`, half-maximal inhibition (IC50) was put at 3 µM. Regarding `CCOC(=O)c1sc2ccccc2c1N`, the half-inhibitory concentration (IC50) was more than 100 µM. On the same count and under the same terms, the same measure for `NNC(=O)c1sc2ncccc2c1N`: more than 100 µM.

In the case of `Cc1cc(C)c2c(N)c(C(N)=O)sc2n1`, half-maximal inhibition (IC50) required 9 µM.

For the compound `Cc1ccc2c(N)c(C(N)=O)sc2n1`, it took 56 µM to reach half-maximal inhibition (IC50). For `Cc1ccc(-c2cc(C(F)(F)F)c3c(N)c(C(N)=O)sc3n2)o1`, the 50% inhibitory concentration (IC50) was 41 µM.

`NC(=O)c1sc2nc(Cc3ccccc3)cc(C(F)(F)F)c2c1N` had a 50% inhibitory concentration (IC50) of 30 µM. Turning to `COc1ccc(-c2cc(-c3ccccc3)nc3sc(C(N)=O)c(N)c23)cc1`, the IC50 is 44 µM. Still for that read-out and setting: the same measure for `CNc1c(C(N)=O)sc2ccccc12`: 34 µM; for `NC(=O)c1cc2ccccc2s1`: more than 100 µM. The compound `NC(=O)c1sc2ccccc2c1O` gave an IC50 of more than 100 µM. The same measure, in the same setting: next, `NC(=O)c1sc2nc(-c3cccnc3)ccc2c1N`: 7.1 µM; `Nc1ncnc2c1oc1ccccc12`: 15 µM; `Nc1ncnc2c1sc1nccnc12`: more than 100 µM. Same read-out and setting: the same measure for `Cc1nc(N)c2sc3ncccc3c2n1`: 43 µM; for `NC(=O)c1sc2cccnc2c1N`: 92 µM; for `NC(=O)c1sc2nc(-c3ccccc3)cc(-c3ccco3)c2c1N`: 2 µM. On to `Cc1cc(-c2ccc(Cl)cc2)c2c(N)c(C(N)=O)sc2n1`, for which half-maximal inhibition (IC50) required 37 µM.

Regarding `Nc1ncnc2c1[nH]c1ccccc12`, the 50% inhibitory concentration (IC50) was 4 µM.

`Nc1c(C(=O)O)sc2ccccc12` registered an IC50 of more than 100 µM. The same measure, in the same setting: next, `Nc1ncnc2c1sc1c(-c3ccccc3)cccc12`: 6.1 µM; `NC(=O)c1sc2nc(-c3ccccc3)c3c(c2c1N)CCCC3`: 2.8 µM.

The compound `Nc1ncnc2c1sc1ccc(-c3ccccc3)cc12` had an IC50 of 5.7 µM. Take `NC(=O)c1sc2nc(-c3ccc4c(c3)OCCO4)cc(C(F)(F)F)c2c1N`: it took 1.3 µM to reach half-maximal inhibition (IC50). Still for that read-out and setting: next, `NC(=O)c1sc2nc(-c3cccs3)cc(C(F)(F)F)c2c1N`: 1.6 µM. Same read-out and setting: next, `Cc1ccnc2sc(C(N)=O)c(N)c12`: 11 µM; `CN(C)C(=O)c1sc2ncccc2c1N`: more than 100 µM; `NC(=O)c1oc2ccccc2c1N`: more than 100 µM. The same measure, in the same setting: next, `Nc1ncnc2c1sc1nc(-c3ccccc3)ccc12`: 0.7 µM. With `Nc1c(C(=O)O)sc2ncccc12`, the IC50 is more than 100 µM. Still for that read-out and setting: next, `Nc1nc(-c2ccccc2)nc2c1sc1ncccc12`: more than 50 µM; `Nc1ncnc2c1sc1cccc(-c3ccccc3)c12`: 5.5 µM; `CNC(=O)c1sc2ncccc2c1N`: more than 100 µM.

In turn, `Nc1ncnc2c1sc1cccnc12` gave an IC50 of 43 µM.

The values above are taken from ChEMBL document CHEMBL3217427, “Identification of 3-aminothieno[2,3-b]pyridine-2-carboxamides and 4-aminobenzothieno[3,2-d]pyrimidines as LIMK1 inhibitors” (Medchemcomm, 2011).
